Assay results from US12558353B2 (CELLTAXIS, LLC, priority 2018, dated 2026).

Tests used:
[1] = tested on: adult patients with cystic fibrosis; test: EMPIRE-CF Phase II randomized placebo-controlled trial: pulmonary exacerbations; type: in vivo, human; settings: for adjusted mean (95% CI) annualized pulmonary exacerbation rate: all lung disease phenotypes; for adjusted mean (95% CI) annualized pulmonary exacerbation rate / proportion of patients who did not experience a pulmonary exacerbation during the study period: 48 weeks; for patients who did not have a pulmonary exacerbation during the study: baseline FEV1pp>75% (mild disease)
Excerpt: EMPIRE-CF was a Phase II multicenter, randomized, double-blind, placebo-controlled, parallel-group study to evaluate the efficacy and safety of acebilustat in adult patients with CF (NCT02443688). The study consisted of a 48-week treatment period and follow-up visit 4 weeks after treatment completion. Screening visits occurred up to 21 days prior to the first study drug dose (FIG. 2).
Patients were enrolled from 69 centers in the USA, Canada, and Europe. All centers were experienced in CF care and the conduct of clinical trials. In brief, adult women and men 18-30 years old with a documented diagnosis of CF, an FEV1pp≥50% at screening and at least one pulmonary exacerbation in the previous year were enrolled. Baseline demographics are presented in the section below.
Patients were randomized 1:1:1 to receive either once-daily oral acebilustat 50 mg or 100 mg (Celtaxsys, Atlanta, GA, USA), or placebo supplied as capsules. The two acebilustat doses were selected based on the levels of reduction of serum LTB4 production seen in Phase I studies.
Pulmonary exacerbations were defined as the requirement for oral, inhaled or intravenous antibiotics for four or more signs or symptoms according to the modified Fuch's criteria (change in sputum; new or increased hemoptysis; increased cough; increased dyspnea; malaise, fatigue or lethargy; temperature >38° C.; anorexia or weight loss; sinus pain or tenderness; change in sinus discharge; change in physical examination of the chest; ≥10% absolute decrease in FEV1pp from the previously recorded value; radiographic changes indicative of pulmonary infection) [Fuchs et al., 1994], referred collectively (antibiotics plus the four or more signs and symptoms) as expanded Fuchs criteria. The date the pulmonary exacerbation began was defined as the first day of antibiotic use.
(§1) Pulmonary exacerbations were analyzed both as the time to first pulmonary exacerbation and the rate of pulmonary exacerbations. The time to first protocol defined-pulmonary exacerbation were analyzed using a Cox proportional hazards model. The number of protocol-defined pulmonary exacerbations reported through the Week 48/Early Termination visit were annualized (where a year was defined as 52 weeks) analyzed using a negative binomial regression. The two active doses were compared to placebo individually as well as pooled together using a contrast statement similar to that used for the primary analysis. Point estimates, standard errors, and 95% CIs for the mean of number of pulmonary exacerbations were presented. The difference in means between each CTX-4430 group from placebo were presented along with standard errors and 95% CIs. Spirometry-based endpoints were analyzed using the same methods as the primary endpoint. Analyses of sputum DNA and elastase and serum high-sensitivity C-reactive protein were based upon descriptive statistics by treatment group.
The annual rate of pulmonary exacerbations was calculated by standard methods for each treatment group.

[2] = Phase I studies; cited from earlier work
[3] = tested on: sputum neutrophil elastase, sputum neutrophil DNA, serum high-sensitivity C-reactive protein; test: EMPIRE-CF: biomarkers (sputum DNA and elastase, serum hs-CRP); type: in vivo, human; settings: compared with reductions seen in phase 1 trial
Procedure: as §1

[4] = in vivo; cited from earlier work
[5] = tested on: sputum neutrophils, sputum elastase, C-reactive protein, sputum LTB4; settings: cited from earlier work
LTB4 production = settings: cited from earlier work
[6] = 100 mg dose, baseline FEV1pp>75%, FAP
[7] = FEV1pp greater than 75 and concomitant CFTR modulator therapy
[8] = FEV1pp>75 at baseline, 100 mg dose
[9] = acebilustat-treated patients overall, analysis population not given
[10] = baseline FEV1pp>75%, FAP, 50 mg
[11] = baseline FEV1pp>75%, FAP, 100 mg
[12] = concomitant CFTR modulator therapy, 100 mg dose
[13] = once-daily, adult patients with CF

O=C(O)c1ccc(CN2C[C@@H]3C[C@H]2CN3Cc2ccc(Oc3ccc(-c4ncco4)cc3)cc2)cc1 [acebilustat, 4-{[(1S,4S)-5-({4-[4-oxazol-2-yl-phenoxy]phenyl}methyl)-2,5-diazabicyclo[2.2.1]heptan-2-yl]methyl}benzoic acid]
rate of pulmonary exacerbations requiring hospitalization as compared to placebo [1, 6]: lower rate | rate of pulmonary exacerbations requiring intravenous antibiotics as compared to placebo [1, 6]: lower the rate | Annualized Rate of Pulmonary Exacerbation (Adjusted Mean) ([1]; Baseline ppFEV1 >60, 50 mg): 1.44 | Annualized Rate of Pulmonary Exacerbation, % difference from Placebo ([1]; Baseline ppFEV1 >60, 50 mg): −2% | Annualized Rate of Pulmonary Exacerbation (Adjusted Mean) ([1]; Baseline ppFEV1 >60, 100 mg): 1.27 | Annualized Rate of Pulmonary Exacerbation, % difference from Placebo ([1]; Baseline ppFEV1 >60, 100 mg): −14% | Annualized Rate of Pulmonary Exacerbation (Adjusted Mean) ([1]; Baseline ppFEV1 >65, 50 mg): 1.25 | Annualized Rate of Pulmonary Exacerbation, % difference from Placebo ([1]; Baseline ppFEV1 >65, 50 mg): −14% | Annualized Rate of Pulmonary Exacerbation (Adjusted Mean) ([1]; Baseline ppFEV1 >65, 100 mg): 1.05 | Annualized Rate of Pulmonary Exacerbation, % difference from Placebo ([1]; Baseline ppFEV1 >65, 100 mg): −28% | Annualized Rate of Pulmonary Exacerbation (Adjusted Mean) ([1]; Baseline ppFEV1 >68, 50 mg): 1.12 | Annualized Rate of Pulmonary Exacerbation, % difference from Placebo ([1]; Baseline ppFEV1 >68, 50 mg): −7% | Annualized Rate of Pulmonary Exacerbation (Adjusted Mean) ([1]; Baseline ppFEV1 >68, 100 mg): 0.81 | Annualized Rate of Pulmonary Exacerbation, % difference from Placebo ([1]; Baseline ppFEV1 >68, 100 mg): −33% | Annualized Rate of Pulmonary Exacerbation (Adjusted Mean) ([1]; Baseline ppFEV1 >70, 50 mg): 1.2 | Annualized Rate of Pulmonary Exacerbation, % difference from Placebo ([1]; Baseline ppFEV1 >70, 50 mg): −22% | Annualized Rate of Pulmonary Exacerbation (Adjusted Mean) ([1]; Baseline ppFEV1 >70, 100 mg): 0.92 | Annualized Rate of Pulmonary Exacerbation, % difference from Placebo ([1]; Baseline ppFEV1 >70, 100 mg): −40% | Annualized Rate of Pulmonary Exacerbation (Adjusted Mean) ([1]; Baseline ppFEV1 >75, 50 mg): 1.28 | Annualized Rate of Pulmonary Exacerbation, % difference from Placebo ([1]; Baseline ppFEV1 >75, 50 mg): −20% | Annualized Rate of Pulmonary Exacerbation (Adjusted Mean) ([1]; Baseline ppFEV1 >75, 100 mg): 0.84 | Annualized Rate of Pulmonary Exacerbation, % difference from Placebo ([1]; Baseline ppFEV1 >75, 100 mg): −48% | time at which divergence in pulmonary exacerbation from placebo occurred ([1]; FAP and PP analysis): approximately 4 months | adjusted mean (95% CI) annualized pulmonary exacerbation rate ([1]; FAP, 50 mg once daily oral): 1.46 (1.13, 1.89) | adjusted mean (95% CI) annualized pulmonary exacerbation rate ([1]; FAP, 100 mg once daily oral): 1.57 (1.22, 2.02) | adjusted mean (95% CI) annualized pulmonary exacerbation rate ([1]; FAP, combined acebilustat groups): 1.51 (1.26, 1.81) | time to first pulmonary exacerbation, hazard ratio versus placebo (95% CI) ([1]; FAP, 50 mg): 0.86 (0.563, 1.308) | proportion of patients who did not experience a pulmonary exacerbation during the study period ([1]; FAP, 50 mg): 39% | time to first pulmonary exacerbation, hazard ratio versus placebo (95% CI) ([1]; FAP, 100 mg): 0.88 (0.576, 1.339) | proportion of patients who did not experience a pulmonary exacerbation during the study period ([1]; FAP, 100 mg): 38% | time to first pulmonary exacerbation, hazard ratio versus placebo (95% CI) ([1]; FAP, acebilustat combined group): 0.87 (0.605, 1.246) | proportion of patients who did not experience a pulmonary exacerbation during the study period ([1]; FAP, combined acebilustat dose group): 38% | response to acebilustat treatment (rate of exacerbations, hazard ratio) ([1]; FEV1 at or below 75% (≤75%)): did not exhibit the same level of response | decrease in the rate of pulmonary exacerbations versus placebo [1, 7]: 54% | higher proportion of patients exacerbation free at 48 weeks versus placebo [1, 7]: 165% | decrease in the rate of pulmonary exacerbations versus placebo ([1]; FEV1pp greater than 75 and concomitant CFTR modulator therapy, 100 mg dose): 65% | higher proportion of patients exacerbation free after 48 weeks of treatment versus placebo [1, 8]: 100% | reduction in PEx rate versus placebo [1, 8]: 48% | reduction in risk of experiencing first exacerbation versus placebo [1, 8]: 48% | more patients with no PEx during the study compared with placebo [1, 9]: 32% | reduced risk in progressing to first PEx versus placebo [1, 9]: 22% | reduction in PEx versus placebo [1, 9]: 18% | response to acebilustat treatment (rate of pulmonary exacerbations) ([1]; baseline FEV1pp at or below the median (≤68%)): did not exhibit the same level of response | annual rate of pulmonary exacerbations versus placebo ([1]; baseline FEV1pp higher than the median (>68%)): lower annual rate of pulmonary exacerbations versus placebo | patients who did not have a pulmonary exacerbation during the study ([1]; 50 mg): 48% | patients who did not have a pulmonary exacerbation during the study ([1]; 100 mg): 50% | patients who did not have a pulmonary exacerbation during the study ([1]; combined acebilustat group): 49% | adjusted mean (95% CI) annualized rate of pulmonary exacerbations [1, 10]: 1.28 (0.84, 1.96) | time to first pulmonary exacerbation, hazard ratio (95% CI) versus placebo [1, 10]: 0.62 (0.304, 1.274) | adjusted mean (95% CI) annualized rate of pulmonary exacerbations [1, 11]: 0.84 (0.49, 1.44) | time to first pulmonary exacerbation, hazard ratio (95% CI) versus placebo [1, 11]: 0.52 (0.245, 1.101) | time to first pulmonary exacerbation, hazard ratio (95% CI) versus placebo ([1]; baseline FEV1pp>75%, FAP, acebilustat combined group): 0.57 (0.307, 1.051) | adjusted mean (95% CI) annualized rate of pulmonary exacerbations ([1]; baseline FEV1pp>75%, FAP, combined acebilustat groups): 1.04 (0.74, 1.46) | reduction in rate of PEx versus CFTR modulators and placebo ([1]; concomitant CFTR modulator therapy, regardless of disease severity, 100 mg dose): 14% | higher proportion of patients with no exacerbations versus CFTR modulators and placebo [1, 12]: 51% | increased time to first exacerbation versus CFTR modulators and placebo [1, 12]: 27% | higher percentage of patients that were exacerbation free ([1]; patients off CFTR modulator therapy): about 15% | drug-related serious adverse events [2]: no drug-related serious AEs | tolerability [2]: well tolerated | sputum neutrophil elastase, sputum neutrophil DNA and serum hs-CRP versus placebo [3]: did not observe similar changes | AUC0-24 at steady state, fed vs fasting [4]: no differences | Cmax or AUC0-24, healthy volunteers versus patients with CF [4]: No significant differences | C-reactive protein ([5]; acebilustat treated groups): Numerical reductions | reduction of sputum elastase levels [5, 13]: up to 58% | reduction of sputum neutrophil levels [5, 13]: up to 65% | sputum LTB4 levels, acebilustat- vs placebo-treated patients ([5]; patients with CF): decreased significantly | peak reduction in LTB4 production (LTB4 production; 50 mg dose): ~75% | reduction of serum LTB4 production (LTB4 production; 100 mg dose, near-maximum): 86%
